Among the data in PMC8745223, “Novel 1,3,5-Triazinyl Aminobenzenesulfonamides Incorporating Aminoalcohol, Aminochalcone and Aminostilbene Structural Motifs as Potent Anti-VRE Agents, and Carbonic Anhydrases I, II, VII, IX, and XII Inhibitors” (International Journal of Molecular Sciences, 2021) are Ki and MIC values, retold here.

Values after ≈ are worked out from the molar mass of the structure shown. Bounds are passed on as bounds.

Experiment [1] is described as follows: stopped-flow CO2 hydration assay. The experiment is classed as biochemical, Homo sapiens. The settings on record: read-out: KI (nM) ^a / hCA I. The method in brief: (§1)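 Ki was derived by non-linear least squares using the Cheng–Prusoff equation. The underlying data were initial rates of CO2 hydration by recombinant human carbonic anhydrase, measured by stopped-flow for 10–100 s with 0.2 mM phenol red (557 nm), 20 mM Hepes pH 7.5, 20 mM Na2SO4 and 1.7–17 mM CO2, after a 15 min room-temperature preincubation of enzyme with inhibitor. Uncatalysed rates were subtracted, at least six traces were used per rate, and values were averaged over three or more determinations.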

Experiment [2] deals with T1, Enterococcus faecalis VRE 342 B.
T1 construct: VRE 342 B (vanA clinical isolate)
Kind of experiment: organism not typed. Set-up: broth microdilution MIC in BHI, Alamar Blue read-out, 37 °C. The settings on record: 24 h. Here is the method: (§2) The inhibition activity against enterococci was evaluated by the microtitration broth method according to the Clinical and Laboratory Standards Institute with some modifications. The compounds were dissolved in DMSO and serially diluted in Brain Hearth Infusion (BHI) to reach concentrations 256–2 µg/mL. […] The experiment was repeated at least three times. All the investigated compounds were tested on their anti-staphylococcal activity against three clinical isolates of methicillin-resistant Staphylococcus aureus (MRSA) and S. aureus ATCC 29213 as the reference and quality control strain.

Experiment [3] relates to T2, Enterococcus faecalis VRE 368.
T2 construct: VRE 368 (vanA clinical isolate)
Kind of experiment: organism not typed. Set-up: broth microdilution MIC in BHI, Alamar Blue read-out, 37 °C. The following applies: 24 h. The procedure: as §2

Experiment [4] deals with T3, hCA II (Homo sapiens, UniProt P00918).
T3 construct: gene CA2; recombinant
Kind of experiment: stopped-flow CO2 hydration assay. The experiment is classed as biochemical. Summed up: as §1

In experiment [5] the test system is T4, E. faecalis ATCC 29212 (EF).
T4 construct: ATCC 29212
Kind of experiment: microbe, parasite or virus in culture. Set-up: broth microdilution MIC in BHI, Alamar Blue read-out, 37 °C. The following applies: Enterococcus faecalis, ATCC29212, 24 h. The procedure:
as §2

Experiment [6] concerns the target T5, hCA VII (Homo sapiens, UniProt P43166).
T5 construct: gene CA7; recombinant
Kind of experiment: stopped-flow CO2 hydration assay. The format is biochemical. The method in brief:
as §1

Experiment [7] deals with T6, Enterococcus faecalis VRE 725 B.
T6 construct: VRE 725B (vanA clinical isolate)
In words: organism not typed. Set-up: broth microdilution MIC in BHI, Alamar Blue read-out, 37 °C. The settings on record: 24 h. The procedure: as §2, with “strain. […] All the compounds were tested against Enterococcus faecalis ATCC 29212 as the reference strain and three isolates from American crows of vanA-carrying vancomycin-resistant E. faecalis (VRE), and the activities, expressed as minimum inhibitory concentrations (MICs), are listed in Table 3.” for “strain.”

Experiment [8] deals with T7, hCA I (Homo sapiens, UniProt P00915).
T7 construct: gene CA1; recombinant
Kind of experiment: stopped-flow CO2 hydration assay. The experiment is classed as biochemical. The method in brief: as §1

Experiment [9] has as its system T4, E. faecalis ATCC 29212 (EF). In words: microbe, parasite or virus in culture. Set-up: broth microdilution MIC in BHI, Alamar Blue read-out, 37 °C. The following applies: Enterococcus faecalis, ATCC29212, 24 h. Here is the method: as §2, with “strain. […] All the compounds were tested against Enterococcus faecalis ATCC 29212 as the reference strain and three isolates from American crows of vanA-carrying vancomycin-resistant E. faecalis (VRE), and the activities, expressed as minimum inhibitory concentrations (MICs), are listed in Table 3.” for “strain.”
The source holds these as a separate data set.

The target in experiment [10] is T7, hCA I. In words: biochemical. Set-up: stopped-flow CO2 hydration assay, phenol red indicator at 557 nm, 15 min preincubation with inhibitor. Here is the method: (§3) AnSX.18MV-R Applied Photophysics stopped-flow instrument (Applied Photophysics, Leatherhead, UK) has been used for assaying the CA catalyzed CO2 hydration activity. Phenol red (at a concentration of 0.2 mM) has been used as an indicator, working at the absorbance maximum of 557 nm, with 20 mM Hepes (pH 7.5) as a buffer and 20 mM Na2SO4 (for maintaining constant the ionic strength), following the CA-catalyzed CO2 hydration reaction for a period of 10–100 s. The CO2 concentrations ranged from 1.7 to 17 mM for the determination of the kinetic parameters and inhibition constants. For each inhibitor, at least six traces of the initial 5–10% of the reaction were used for determining the initial velocity. The uncatalyzed rates were determined in the same manner and were subtracted from the total observed rates. Stock solutions of the inhibitor (0.1 mM) were prepared in distilled-deionized water, and dilutions up to 0.005 nM were done thereafter with the assay buffer. Inhibitor and enzyme solutions were preincubated together for 15 min at room temperature prior to assay in order to allow for the formation of the E–I complex. The inhibition constants were obtained by non-linear least-squares methods using PRISM 3 and the ChengPrusoff equation, as reported earlier, and represent the mean from at least three different determinations. All CA isoforms were recombinant ones and were prepared as reported earlier. Errors in the range of 5–10% of the reported value (Mean from three different assays, by stopped-flow technique). The presence of aminobenzenesulfonamide structural moiety in the structure of target compounds 1–44 can cause inhibition activity in these compounds against human carbonic anhydrases. The inhibition of physiologically relevant hCA I and hCA II can lead to various undesirable side effects. On the other hand, the inhibition of tumor-associated isoenzymes hCA IX and hCA XII could be a great benefit in tumor treatment. Inhibition of isoenzyme hCA VII, which is presented mostly in the brain, can be a new approach for the treatment of epilepsy or chronic neuropathic pain [42, 43]. Compounds 1–44 were evaluated as potential inhibitors of hCA I, hCA II, hCA VII, hCA IX, and hCA XII. The inhibition activities against individual hCAs were determined by methodology based on stopped-flow assay. For completeness, Table 2 also includes the previously published inhibition activities of compounds 2, 3, 5–12 and 18–19. Values of KIs were compared with clinically used sulfonamides as standards—AAZ (acetazolamide), BRZ (brinzolamide), DCP (dichlorphenamide), DZA (dorzolamide), EZA (ethoxzolamide), MZA (methazolamide), and IND (indisulam; canceled in clinical trials).

Experiment [11] has as its target T5, hCA VII. Kind of experiment: biochemical. Set-up: stopped-flow CO2 hydration assay, phenol red indicator at 557 nm, 15 min preincubation with inhibitor. Here is the method: as §3
Experiment [12] has as its target T8, hCA IX (Homo sapiens, UniProt Q16790).
T8 construct: gene CA9; recombinant
In words: biochemical. Set-up: stopped-flow CO2 hydration assay, phenol red indicator at 557 nm, 15 min preincubation with inhibitor. Here is the method: as §3

In experiment [13] the target is T3, hCA II. In words: biochemical. Set-up: stopped-flow CO2 hydration assay, phenol red indicator at 557 nm, 15 min preincubation with inhibitor. Here is the method: as §3
Experiment [14] deals with T1, Enterococcus faecalis VRE 342 B. In words: organism not typed. Set-up: broth microdilution MIC in BHI, Alamar Blue read-out, 37 °C. The following applies: 24 h. The procedure:
as §2, with “strain. […] All the compounds were tested against Enterococcus faecalis ATCC 29212 as the reference strain and three isolates from American crows of vanA-carrying vancomycin-resistant E. faecalis (VRE), and the activities, expressed as minimum inhibitory concentrations (MICs), are listed in Table 3.” for “strain.”
The source holds these as a separate data set.

In experiment [15] the test system is T2, Enterococcus faecalis VRE 368. In words: organism not typed. Set-up: broth microdilution MIC in BHI, Alamar Blue read-out, 37 °C. The settings on record: 24 h. Here is the method: as §2, with “strain. […] All the compounds were tested against Enterococcus faecalis ATCC 29212 as the reference strain and three isolates from American crows of vanA-carrying vancomycin-resistant E. faecalis (VRE), and the activities, expressed as minimum inhibitory concentrations (MICs), are listed in Table 3.” for “strain.”
The source holds these as a separate data set.

Experiment [16] deals with T9, hCA XII (Homo sapiens, UniProt O43570).
T9 construct: gene CA12; recombinant
Kind of experiment: stopped-flow CO2 hydration assay. The experiment is classed as biochemical. Summed up: as §1

For experiment [17], the target named is T8, hCA IX. In words: stopped-flow CO2 hydration assay. The experiment is classed as biochemical. The method in brief:
as §1

Experiment [18] deals with T7, hCA I. In words: biochemical. Set-up: stopped-flow CO2 hydration assay, phenol red indicator 557 nm, recombinant human CA, 15 min preincubation. Here is the method:
as §3, with “On the other hand, the inhibition of tumor-associated isoenzymes hCA IX and hCA XII could be a great benefit in tumor treatment. Inhibition of isoenzyme hCA VII, which is presented mostly in the brain, can be a new approach for the treatment of epilepsy or chronic neuropathic pain [42, 43].” left out, “For completeness, Table 2 also includes the previously published inhibition activities of compounds 2, 3, 5–12 and 18–19. Values of KIs were compared with clinically used sulfonamides as standards—AAZ (acetazolamide), BRZ (brinzolamide), DCP (dichlorphenamide), DZA (dorzolamide), EZA (ethoxzolamide), MZA (methazolamide), and IND (indisulam; canceled in clinical trials).” left out

T5 sequence (P43166 whole entry): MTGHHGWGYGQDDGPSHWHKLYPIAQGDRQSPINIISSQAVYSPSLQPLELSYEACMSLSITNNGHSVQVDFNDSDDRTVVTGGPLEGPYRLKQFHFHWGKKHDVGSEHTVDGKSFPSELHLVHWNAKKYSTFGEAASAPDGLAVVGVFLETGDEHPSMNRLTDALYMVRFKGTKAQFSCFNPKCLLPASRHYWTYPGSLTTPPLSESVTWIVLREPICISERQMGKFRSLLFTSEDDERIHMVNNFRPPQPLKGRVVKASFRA
T9 sequence (O43570 25-354): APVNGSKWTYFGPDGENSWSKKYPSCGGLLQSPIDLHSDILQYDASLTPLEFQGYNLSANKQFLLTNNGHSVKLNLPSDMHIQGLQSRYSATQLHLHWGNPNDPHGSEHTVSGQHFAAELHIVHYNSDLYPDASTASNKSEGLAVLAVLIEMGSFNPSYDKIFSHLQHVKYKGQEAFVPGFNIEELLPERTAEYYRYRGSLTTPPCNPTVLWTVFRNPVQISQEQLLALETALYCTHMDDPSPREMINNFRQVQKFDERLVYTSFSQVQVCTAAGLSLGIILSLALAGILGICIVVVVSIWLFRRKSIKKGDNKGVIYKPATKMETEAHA
T7 sequence (P00915 2-261): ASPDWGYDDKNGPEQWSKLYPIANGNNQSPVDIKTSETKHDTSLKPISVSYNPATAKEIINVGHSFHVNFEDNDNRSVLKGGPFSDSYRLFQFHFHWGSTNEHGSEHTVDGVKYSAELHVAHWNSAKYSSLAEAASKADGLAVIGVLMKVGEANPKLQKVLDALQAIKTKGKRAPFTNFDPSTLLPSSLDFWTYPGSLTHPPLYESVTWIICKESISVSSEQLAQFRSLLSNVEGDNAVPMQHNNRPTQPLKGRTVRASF

In the case of `NS(=O)(=O)c1ccc(CNc2nc(NCCCO)nc(Nc3ccc(C(=O)/C=C/c4cccc(O)c4)cc3)n2)cc1` [compound 15, 15], the Ki in [1] was > 10000 nM; in [4], 3020 nM; in experiment [6] it was 25.9 nM; in experiment [8] it was > 10000 nM. Moreover, the MIC turned out to be 222 µM (≈ 128 µg/mL) in experiment [2], 111 µM (≈ 63.9 µg/mL) in [3], 222 µM (≈ 128 µg/mL) in [5] and 111 µM (≈ 63.9 µg/mL) in [7].

For `NS(=O)(=O)c1ccc(CCNc2nc(Nc3ccc(O)cc3)nc(Nc3ccc(C(=O)/C=C/c4ccccc4)cc3)n2)cc1` [compound 21, (E)-4-[2-({4-[(4-Cinnamoylphenyl)amino]-6-[(4-hydroxyphenyl)amino]-1,3,5-triazin-2-yl}amino)ethyl]benzenesulfonamide], the Ki in experiment [1] is > 10000 nM; in [4], 3160 nM; in experiment [6], 810 nM; in experiment [8], > 10000 nM. Besides, the MIC in experiment [2], in [3], in experiment [5] and in [7] was 26.3 µM (≈ 16 µg/mL) throughout.

In the case of `NS(=O)(=O)c1ccc(CCNc2nc(NCC(O)CO)nc(Nc3ccc(C(=O)/C=C/c4ccccc4O)cc3)n2)cc1` (centres unmarked) [compound 23, 23], the Ki in experiment [1] is > 10000 nM; in experiment [4] it was 83 nM; in experiment [6], 88.7 nM; in experiment [8], > 10000 nM. The MIC worked out at 52.8 µM (≈ 32 µg/mL) in experiment [2], 52.8 µM (≈ 32 µg/mL) in experiment [3], 52.8 µM (≈ 32 µg/mL) in experiment [5] and 105 µM (≈ 63.6 µg/mL) in [7].

With `NS(=O)(=O)c1ccc(CNc2nc(NCC(O)CO)nc(Nc3ccc(C(=O)/C=C/c4ccc(O)cc4)cc3)n2)cc1` (centres unmarked) [compound 28, 28], the MIC in experiment [9], in experiment [14], in [15] and in [7] was > 444 µM in each case. Further, the Ki amounted to 8220 nM in experiment [10], 594 nM in experiment [11], 8460 nM in experiment [12] and 184 nM in [13].

For the compound `NS(=O)(=O)c1ccc(CCNc2nc(NCCc3ccc(S(N)(=O)=O)cc3)nc(Nc3ccc(/C=C/c4cccc(O)c4)cc3)n2)cc1` [compound 41, (E)-4,4’-{[(6-{[4-(3-Hydroxystyryl)phenyl]amino}-1,3,5-triazin-2,4-diyl)bis(azandiyl)]bis(ethan-2,1-diyl)} benzenesulfonamide], the Ki in experiment [16] was found to be 62.2 nM; in [17], 31.1 nM; in experiment [4] it was 41.4 nM; in [18], 608 nM. Also, the MIC in [2] is > 372 µM; in [3] it was > 372 µM; in experiment [5], 372 µM (≈ 255 µg/mL); in experiment [7], > 372 µM.

Regarding `NS(=O)(=O)c1ccc(CCNc2nc(Nc3ccc(O)cc3)nc(Nc3ccc(/C=C/c4ccc(O)cc4)cc3)n2)cc1` [compound 43, 43], the Ki is 702 nM in experiment [16], 25.7 nM in experiment [17], 4840 nM in experiment [4] and 4060 nM in experiment [18]. Moreover, the MIC in [2] was > 429 µM; in [3], > 429 µM; in experiment [5], 429 µM (≈ 256 µg/mL); in experiment [7], > 429 µM.

On to `NS(=O)(=O)c1ccc(CCNc2nc(NCc3ccc(S(N)(=O)=O)cc3)nc(Nc3ccc(/C=C/c4ccc(O)cc4)cc3)n2)cc1` [compound 44, (E)-4-{2-[(4-{[4-(4-Hydroxystyryl)phenyl]amino}-6-[(4-sulfamoylbenzyl)amino]-1,3,5-triazin-2-yl)amino]ethyl}benzenesulfonamide], for which the Ki in experiment [16] worked out at 10 nM; in experiment [17], 249 nM; in experiment [4], 252 nM; in experiment [18], 859 nM. Moreover, the MIC in experiment [2] is 190 µM (≈ 128 µg/mL); in experiment [3] it was > 380 µM; in experiment [5], 380 µM (≈ 256 µg/mL); in [7], 380 µM (≈ 256 µg/mL).
